Results taken from US20240092750A1, “AQUEOUS FORMULATIONS OF CYTOTOXIC TAXANES WITH CYCLODEXTRIN” (Northwestern University, priority 2022, published 2024).
Entries after “also recorded” stand apart in the source; their conditions may differ.

How the values were obtained:
[1] = molecular target: T1, Tubulin protein (Sus scrofa, UniProt P02550+P02554); assay: In vitro tubulin polymerization assay (turbidity at 350 nm); assay type: biochemical, porcine; conditions: 20 minutes, 37° C.
T1 construct: Tubulin protein (>99% pure, extracted from porcine brain); from tissue; host or cells: porcine brain
Description: Tubulin protein (>99% pure, extracted from porcine brain) was reconstituted in buffer solution (80 mM PIPES pH 6.9, 2 mM MgCl2, 0.5 mM EGTA, and 10% (v/v) glycerol) to a concentration of 1 mg/mL. 100 μL of this tubulin solution was added per well of a black, 96-well plate, which had been warmed to 37° C. prior to the experiment. This was followed by the addition of either guanosine triphosphate (GTP), Paclitaxel (PTX), or ODDA-PTX-CyD, where the final concentration in each respective well was 1 mM GTP, 10 μM PTX, or 10 μM ODDA-PTX-CyD. Changes in turbidity of the samples were monitored via 96-well plate reader at 350 nm, where a recorded increase in optical density supports the formation of microtubules in solution. Each set of conditions were measured in triplicate and monitored over 20 minutes at 37° C.

[2] = Aqueous solubility tests in milliQ water or dPBS
Description: Solubility Tests: To verify ODDA-PTX aqueous solubility, characterization methods in milliQ water or dPBS were performed.

T1 sequence (P02554 whole entry): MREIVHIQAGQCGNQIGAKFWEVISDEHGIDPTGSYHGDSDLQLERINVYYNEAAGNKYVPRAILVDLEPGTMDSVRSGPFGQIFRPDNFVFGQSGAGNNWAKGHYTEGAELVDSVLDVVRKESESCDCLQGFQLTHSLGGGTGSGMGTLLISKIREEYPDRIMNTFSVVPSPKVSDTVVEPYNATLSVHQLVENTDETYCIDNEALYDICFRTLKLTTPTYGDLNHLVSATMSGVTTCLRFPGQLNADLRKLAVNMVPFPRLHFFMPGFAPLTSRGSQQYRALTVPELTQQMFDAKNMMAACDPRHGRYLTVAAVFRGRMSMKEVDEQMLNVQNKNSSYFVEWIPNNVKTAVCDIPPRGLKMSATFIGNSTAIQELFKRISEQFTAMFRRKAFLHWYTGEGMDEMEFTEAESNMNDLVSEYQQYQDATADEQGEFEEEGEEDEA
T1 sequence (P02550 whole entry): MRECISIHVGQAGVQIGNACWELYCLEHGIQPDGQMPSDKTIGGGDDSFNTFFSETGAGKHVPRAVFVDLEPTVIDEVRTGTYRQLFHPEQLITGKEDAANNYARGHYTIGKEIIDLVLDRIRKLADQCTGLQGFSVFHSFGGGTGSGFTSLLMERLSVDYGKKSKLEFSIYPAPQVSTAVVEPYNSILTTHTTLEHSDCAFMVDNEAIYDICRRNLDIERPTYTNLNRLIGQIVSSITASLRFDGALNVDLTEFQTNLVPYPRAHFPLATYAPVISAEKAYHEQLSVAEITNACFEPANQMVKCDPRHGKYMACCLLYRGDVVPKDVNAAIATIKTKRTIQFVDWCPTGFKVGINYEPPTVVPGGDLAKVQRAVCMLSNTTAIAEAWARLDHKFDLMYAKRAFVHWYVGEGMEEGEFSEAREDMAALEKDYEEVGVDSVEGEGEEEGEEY

## Nc1nc2c(ncn2[C@@H]2O[C@H](COP(=O)(O)OP(=O)(O)OP(=O)(O)O)[C@@H](O)[C@H]2O)c(=O)[nH]1 [GTP, guanosine triphosphate]
[1]; 1 mM GTP
  change in optical density (microtubule formation): did not portray significant increases in optical density

## CC(=O)O[C@H]1C(=O)[C@@]2(C)[C@H]([C@H](OC(=O)c3ccccc3)[C@]3(O)C[C@H](OC(=O)[C@H](OC(=O)CCCCCCCCCCCCCCCCC(=O)O)[C@@H](NC(=O)c4ccccc4)c4ccccc4)C(C)=C1C3(C)C)[C@]1(OC(C)=O)CO[C@@H]1C[C@@H]2O [ODDA-PTX, 1,18-octadecandioic acid-paclitaxel]
[2]; water alone / buffer alone
  solubility in water or buffer alone (in words): insolubility; also recorded: not soluble in water alone
[2]; with respect to ODDA-PTX
  aqueous solubility with respect to ODDA-PTX: 21 µg/mL

## CC(=O)O[C@H]1C(=O)[C@@]2(C)[C@H]([C@H](OC(=O)c3ccccc3)[C@]3(O)C[C@H](OC(=O)[C@H](O)[C@@H](NC(=O)c4ccccc4)c4ccccc4)C(C)=C1C3(C)C)[C@]1(OC(C)=O)CO[C@@H]1C[C@@H]2O [paclitaxel]
[1]; 10 μM
  change in optical density (microtubule formation): resulted in the formation of microtubules
